According to patent publication US11230540B2, “Substituted triazole derivatives and uses thereof” (Bayer Pharma Aktiengesellschaft, priority 2017, dated 2022):
Counter-ions that a name gives are not always drawn.

Tests used:
human V1a receptor = target: T1, human V1a receptor (Homo sapiens, UniProt P37288); assay: Cellular in vitro assay for vasopressin receptor activity, V1a receptor cell line (aequorin luminescence); type: cell-based; conditions: for IC50: CHO cell line transfected with human V1a receptor, [Arg8]-vasopressin at EC50 concentration, read-out: IC50 hV1a; for ratio IC50 hV2/hV1a: selectivity ratio of the IC50 values hV2/hV1a
T1 construct: expressed in transfected cells; host or cells: CHO K1 (Chinese hamster ovary), also stably transfected with a modified aequorin
Procedure, shortened: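 Recombinant CHO K1 cells stably expressing human V1a receptor and aequorin, loaded with coelenterazine, were exposed to test compounds for 10 minutes before [Arg^8]-vasopressin at EC50 concentration. Calcium-triggered luminescence was measured immediately, giving IC50 values.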

human V2 receptor = target: T2, human V2 receptor (Homo sapiens, UniProt P30518); assay: Cellular in vitro assay for vasopressin receptor activity, V2 receptor cell line (CRE-luciferase); type: cell-based; conditions: CHO cell line transfected with human V2 receptor; [Arg8]-vasopressin at EC50 concentration; read-out: IC50 hV2
T2 construct: expressed in transfected cells; host or cells: CHO K1 (Chinese hamster ovary) expressing firefly luciferase under a CRE-responsive promoter
Procedure, shortened: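 CHO K1 cells stably expressing human V2 receptor with CRE-driven firefly luciferase, plated the day before. Test compounds at various concentrations added together with [Arg^8]-vasopressin at EC50 concentration, 3 h at 37° C, 5% CO2. Luminescence read after Triton lysis and luciferin addition; IC50 values reported.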

T2 sequence (P30518 whole entry): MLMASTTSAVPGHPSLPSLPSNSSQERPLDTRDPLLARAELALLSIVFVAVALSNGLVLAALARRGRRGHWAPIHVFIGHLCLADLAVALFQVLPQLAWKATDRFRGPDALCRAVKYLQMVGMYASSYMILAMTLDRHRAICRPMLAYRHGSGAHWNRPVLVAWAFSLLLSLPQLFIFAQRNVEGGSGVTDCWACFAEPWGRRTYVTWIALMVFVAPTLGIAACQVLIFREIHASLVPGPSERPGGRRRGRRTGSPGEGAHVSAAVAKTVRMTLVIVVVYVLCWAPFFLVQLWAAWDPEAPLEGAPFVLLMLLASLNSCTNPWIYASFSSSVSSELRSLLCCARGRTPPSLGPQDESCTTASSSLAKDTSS
T1 sequence (P37288 whole entry): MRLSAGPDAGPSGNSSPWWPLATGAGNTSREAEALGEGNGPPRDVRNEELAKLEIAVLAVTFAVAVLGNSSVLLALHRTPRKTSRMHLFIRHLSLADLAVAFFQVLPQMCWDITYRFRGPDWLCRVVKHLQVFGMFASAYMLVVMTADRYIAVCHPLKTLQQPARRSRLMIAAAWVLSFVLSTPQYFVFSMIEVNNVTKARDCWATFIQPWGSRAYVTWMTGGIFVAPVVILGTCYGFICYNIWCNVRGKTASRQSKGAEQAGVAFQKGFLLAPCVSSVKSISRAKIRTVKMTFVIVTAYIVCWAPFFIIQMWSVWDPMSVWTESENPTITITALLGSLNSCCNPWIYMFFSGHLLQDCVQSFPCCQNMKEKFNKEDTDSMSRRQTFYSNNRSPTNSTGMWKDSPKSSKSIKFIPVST

Structure (SMILES)	IC50 (human V1a receptor)	ratio IC50 hV2/hV1a (human V1a receptor)	IC50 (human V2 receptor)
CON(C)C(=O)c1nc(Cn2nc(-c3ccc(Cl)cc3)n(C[C@H](O)C(F)(F)F)c2=O)nn1-c1ccccc1Cl [Example 44, 1-(2-Chlorophenyl)-3-({3-(4-chlorophenyl)-5-oxo-4-[(2S)-3,3,3-trifluoro-2-hydroxypropyl]-4,5-dihydro-1H-1,2,4-triazol-1-yl}methyl)-N-methoxy-N-methyl-1H-1,2,4-triazole-5-carboxamide]	1.21 nM	7.2	8.63 nM
CON(C)C(=O)c1nc(Cn2nc(-c3ccc(Cl)cc3)n(C[C@H](O)C(F)(F)F)c2=O)nn1-c1cccc(Cl)c1 [Example 45, 1-(3-Chlorophenyl)-3-({3-(4-chlorophenyl)-5-oxo-4-[(2S)-3,3,3-trifluoro-2-hydroxypropyl]-4,5-dihydro-1H-1,2,4-triazol-1-yl}methyl)-N-methoxy-N-methyl-1H-1,2,4-triazole-5-carboxamide]	0.64 nM	5.7	3.66 nM
CC(C)(N)CNC(=O)c1nc(Cn2nc(-c3ccc(Cl)cc3)n(C[C@H](O)C(F)(F)F)c2=O)nn1-c1ncccc1C(F)(F)F [Example 46, N-(2-Amino-2-methylpropyl)-3-({3-(4-chlorophenyl)-5-oxo-4-[(2S)-3,3,3-trifluoro-2-hydroxypropyl]-4,5-dihydro-1H-1,2,4-triazol-1-yl}methyl)-1-[3-(trifluoromethyl)pyridin-2-yl]-1H1,2,4-triazole-5-carboxamide]	288 nM	5.1	1470 nM
O=C(NCC(F)(F)F)c1nc(Cn2nc(-c3ccc(Cl)cc3)n(C[C@H](O)C(F)(F)F)c2=O)nn1-c1ncccc1C(F)(F)F [Example 47, 3-({3-(4-Chlorophenyl)-5-oxo-4-[(2S)-3,3,3-trifluoro-2-hydroxypropyl]-4,5-dihydro-1H-1,2,4-triazol-1-yl}methyl)-N-(2,2,2-trifluoroethyl)-1-[3-(trifluoromethyl)pyridin-2-yl]-1H-1,2,4-triazole-5-carboxamide]	0.92 nM	41.8	38.5 nM
CC(C)(C)NC(=O)c1nc(Cn2nc(-c3ccc(Cl)cc3)n(C[C@H](O)C(F)(F)F)c2=O)nn1-c1ncccc1C(F)(F)F [Example 48, N-Tert-butyl-3-({3-(4-chlorophenyl)-5-oxo-4-[(2S)-3,3,3-trifluoro-2-hydroxypropyl]-4,5-dihydro-1H-1,2,4-triazol-1-yl}methyl)-1-[3-(trifluoromethyl)pyridin-2-yl]-1H-1,2,4-triazole-5-carboxamide]	1.31 nM	31.3	41 nM
CC1(C)CN(C(=O)c2nc(Cn3nc(-c4ccc(Cl)cc4)n(C[C@H](O)C(F)(F)F)c3=O)nn2-c2ncccc2C(F)(F)F)CCN1 [Example 49, 5-(4-Chlorophenyl)-2-({5-(3,3-dimethylpiperazine-1-carbonyl)-1-[3-(trifluoromethyl)pyridin-2-yl]-1H-1,2,4-triazol-3-yl}methyl)-4-[(2S)-3,3,3-trifluoro-2-hydroxypropyl]-2,4-dihydro-3H-1,2,4-triazol-3-one hydrochloride]	2.5 nM	191.0	478 nM
CC(C)(C)CNC(=O)c1nc(Cn2nc(-c3ccc(Cl)cc3)n(C[C@H](O)C(F)(F)F)c2=O)nn1-c1ncccc1C(F)(F)F [Example 50, 3-({3-(4-Chlorophenyl)-5-oxo-4-[(2S)-3,3,3-trifluoro-2-hydroxypropyl]-4,5-dihydro-1H-1,2,4-triazol-1-yl}methyl)-N-(2,2-dimethylpropyl)-1-[3-(trifluoromethyl)pyridin-2-yl]-1H-1,2,4-triazole-5-carboxamide]	0.7 nM	100.0	70 nM
